# Read-outs that look alike come from different tables or passages of the source.
# Legend:
# [1] = Relative animal toxicokinetic and human pharmacokinetic drug exposures; type: in vivo; conditions: maximum human drug exposure (100 mg tid) = 1.0
# [2] = test system: healthy young male subjects; assay: Multiple dose safety study in male healthy volunteers; conditions: human, 50 or 100 mg tid, 10 days
# Description: The study was designed as a randomized, double-blind and single-center study, without therapeutic benefit for the subjects.
# The study was performed in 18 healthy subjects divided into 2 groups of 9 subjects (groups A and B). Subjects of group A received 50 mg Compound I as a single dose on the morning of day 1; then 50 mg Compound I tid on days 2 to 9; and a single 50 mg dose on the morning of day 10.
# [3] = test system: healthy young male subjects; conditions: human, single oral doses 50-800 mg
# Description: The study was conducted in 12 volunteers, in accordance with the Helsinski Declaration, European Good Clinical Practices and Huriet law. The volunteers were divided into two groups (n=6 in each group).
# The dose was administered orally, under medical supervision, after a 10 h abstinence from food. No concomitant medication was allowed within the period of time from the screening examination to 24 h after the last administration.
# [4] = test system: human hepatocytes
# [5] = 28-day repeated dose oral toxicokinetic study in rats; conditions: for Tmax: rat, in vivo, po
# Description: A 28-day repeated dose oral toxicokinetic study of Compound I was performed in rats involving dose groups of 375 mg/kg, 750 mg/kg and 1500 mg/kg/day (equal to 233 mg/kg, 465 mg/kg and 930 mg/kg free base) (n=5 animals/sex/group). Blood samples were taken after the first and after the last doses to determine the kinetic parameters.
# [6] = dog, in vivo
# [7] = Double-blind multiple oral dose pharmacokinetics in male healthy volunteers
# Description: The study was designed to compare the pharmacokinetic profile of Compound I from the following dose regimens: • A: Administration of 1 capsule containing 50 mg of Compound I or of 1 capsule of placebo, three times a day, total dose 150 mg. • B: Administration of 1 capsule containing 100 mg of Compound I or of 1 capsule of placebo, three times a day, total dose 300 mg.
# The treatments were applied in parallel groups. […] The study was conducted according to the study protocol and in accordance with GCP.
# [8] = test system: mSOD1^(G93A) mice; assay: Lifespan and disease progression in mSOD1(G93A) ALS mice; type: in vivo, mouse
# Description: Nat. Med. 10(4), p. 345-7 (2004), which is incorporated by reference.
# Thus, Compound I-treated mice lived an average of 153 days (±2.6 SEM, n=7). This represents a significant increase in lifespan of over 22% (p=<0.001). The effect of beginning Compound I treatment at the time of disease onset was also tested by starting treatment at 70 days of age, when the first signs of locomotor defects are observed. Compound I treatment from 70 days of age extended the mean lifespan of mSOD1^(G93A) mice by 23 days, from 125 days (±1.8 SEM, n=18) in the untreated group to 148 days (±1.5 SEM, n=5) in the treated group. This represents an increase in lifespan of 18% (p=<0.001).
# [9] = test system: rat hepatocytes
# [10] = test system: rats; assay: 180-day repeated dose oral toxicity study in rats
# Description: A six-month repeated dose oral toxicity study of Compound I was performed in rats involving a control (physiologic saline, n=32/sex) and dose groups of 200 mg/kg/day, 400 mg/kg/day and 900 mg/kg/day (equal to 124 mg/kg, 248 mg/kg and 558 mg/kg free base, n=20/sex, 20/sex and 32/sex, respectively). The test item was dissolved in distilled water. Treatment was carried out by a stomach tube daily. The application volume was adjusted weekly according to the animal's body weight changes.
# Clinical observations were made once daily. Body weight and food consumption were measured and evaluated weekly. Urine collection, blood sampling for hematological, clinical chemistry evaluation and gross necropsy were conducted at the end of the treatment period. Full histopathologic examination was performed on the preserved organs and tissues of the vehicle control and high dose groups. In addition, the liver, kidneys, testes, epididymis and organs showing macroscopic alterations were examined microscopically in the low and medium doses.
# Compound I content (pre-dose concentration) was determined in serum on days 1, 49, 111 and 173. The serum samples were analyzed by liquid/liquid extraction, and ion-pair HPLC. Twelve animals per sex of the controls and high dose groups were kept alive for a 28-day post-treatment recovery period. They were processed in the same way as animals at the termination of treatment.
# [11] = treatment from 70 days of age, vs untreated
structure (smiles),measurement,setting,value
"[O-][n+]1cccc(/C(Cl)=N/OC[C@H](O)CN2CCCCC2)c1 [Compound I, N-[2-hydroxy-3-(1-piperidinyl)-propoxy]-pyridine-1-oxide-3-carboximidoyl chloride]",Fold-above minimum effective mouse exposure,[1]; AUC,12
same,Fold-above minimum effective rat exposure,[1]; AUC,5.9
same,Fold-below dog drug exposure at NOAEL,[1]; AUC,17
same,Fold-below rat drug exposure at NOAEL,[1]; AUC,6.0
same,Fold-above minimum effective mouse exposure,[1]; Cmax,2.8
same,Fold-above minimum effective rat exposure,[1]; Cmax,1.4
same,Fold-below dog drug exposure at NOAEL,[1]; Cmax,5
same,Fold-below rat drug exposure at NOAEL,[1]; Cmax,28
same,serious adverse events or deaths,[2],no serious adverse events or deaths
same,"changes in safety parameters (laboratory parameters, vital signs, ECGs)",[3],No changes in any safety parameters
same,serious adverse events or deaths,[3],no serious adverse events or deaths
same,amount of metabolite No. 1,[4],0.64 % of the total radioactivity
same,amount of metabolite No. 2,[4],0.60 % of the total radioactivity
same,amount of metabolite No. 3,[4],0.80 % of the total radioactivity
same,amount of metabolite No. 4,[4],0.62 % of the total radioactivity
same,amount of metabolite No. 5 (bimoclomol),[4],2.59 % of the total radioactivity
same,clearance,"[4]; human, hepatocytes",0.040 mL/h
same,t1/2,"[4]; human, hepatocytes",17.2 h
same,Cmax,"[5]; male rats, 750 mg/kg/day oral, Day 28",20410 ng/mL
same,Tmax,[5]; 375 mg/kg,1 h
same,Tmax,[5]; 375 mg/kg/day,0.5 h
same,Tmax,[5]; 750 mg/kg,2 h
same,Tmax,[5]; 1500 mg/kg,2 h
same,major elimination route,[6],eliminated with urine
same,AUC of radioactivity relative to parent compound,[6]; iv,about 8 times
same,central volume of distribution Vc,"[6]; iv, 6.45 mg/kg",1.50 ± 0.5 L/kg
same,first apparent elimination half-life,"[6]; iv, 6.45 mg/kg",0.33 ± 0.51 h
same,second apparent elimination half-life,"[6]; iv, 6.45 mg/kg",1.26 ± 0.20 h
same,mean AUC of radioactivity relative to parent compound,[6]; po,about 10 times
same,peak concentration of radioactivity relative to Compound I,[6]; po,1.7 times
same,radioactivity concentration at two weeks,[6]; po,0.014±0.004 μgE/ml
same,"serum radioactivity at 12 h, share of peak",[6]; po,about 15%
same,absorption half-life,"[6]; po, 6.45 mg/kg",0.38 h
same,oral bioavailability,"[6]; po, 6.45 mg/kg",77%
same,oral bioavailability of total radioactivity,"[6]; po, 6.45 mg/kg",104%
same,peak concentration,"[6]; po, 6.45 mg/kg",0.94 ± 0.37 µg/mL
same,start of absorption after dosing,"[6]; po, 6.45 mg/kg",15 to 120 min
same,time of peak concentration,"[6]; po, 6.45 mg/kg",1 to 2 h
same,dose-adjusted AUC0-8 h ratio (2×50 mg dosing level/100 mg dosing level),[7]; Day 1,0.95
same,dose-adjusted Cmax ratio (2×50 mg dosing level/100 mg dosing level),[7]; Day 1,0.94
same,dose-adjusted AUC0-8 h ratio (2×50 mg dosing level/100 mg dosing level),[7]; Day 10,1.02
same,dose-adjusted Cmax ratio (2×50 mg dosing level/100 mg dosing level),[7]; Day 10,0.88
same,"Racc accumulation ratio = AUC0-8 Day 10/AUC0-8 Day 1, GeoM","[7]; Treatment A, 50 mg tid",1.512
same,"Racc accumulation ratio = AUC0-8 Day 10/AUC0-8 Day 1, MEAN","[7]; Treatment A, 50 mg tid",1.525
same,"Racc accumulation ratio = AUC0-8 Day 10/AUC0-8 Day 1, MEAN","[7]; Treatment B, 100 mg tid",1.426
same,"Racc accumulation ratio = AUC0-8 Day 10/AUC0-8 Day 1, GeoM",[7]; continuation of Treatment B (100 mg tid) under a head printed as Treatment A,1.415
same,"AUC0-inf, GeoM","[7]; human, in vivo, 50 mg",680 ng·h/mL
same,"AUC0-inf, MEAN","[7]; human, in vivo, 50 mg",691 ng·h/mL
same,"AUC0-tz, GeoM","[7]; human, in vivo, 50 mg",621 ng·h/mL
same,"AUC0-tz, MEAN","[7]; human, in vivo, 50 mg",632 ng·h/mL
same,"LinPK = AUC0-8 Day 10/AUC0-inf, GeoM","[7]; human, in vivo, 50 mg",1.148
same,"LinPK = AUC0-8 Day 10/AUC0-inf, MEAN","[7]; human, in vivo, 50 mg",1.166
same,"AUC0-8, MEAN","[7]; human, in vivo, 100 mg",1101 ng·h/mL
same,"AUC0-inf, GeoM","[7]; human, in vivo, 100 mg",1303 ng·h/mL
same,"AUC0-inf, MEAN","[7]; human, in vivo, 100 mg",1344 ng·h/mL
same,"AUC0-tz, GeoM","[7]; human, in vivo, 100 mg",1266 ng·h/mL
same,"AUC0-tz, MEAN","[7]; human, in vivo, 100 mg",1307 ng·h/mL
same,"AUCt, MEAN","[7]; human, in vivo, 100 mg",1540 ng·h/mL
same,"LinPK = AUC0-8 Day 10/AUC0-inf, GeoM","[7]; human, in vivo, 100 mg",1.172
same,"LinPK = AUC0-8 Day 10/AUC0-inf, MEAN","[7]; human, in vivo, 100 mg",1.187
same,average lifespan,"[8]; 10 mg/kg ip daily from 35 days of age, untreated 125 days",153 days
same,mean lifespan,"[8]; 10 mg/kg ip daily from 70 days of age, untreated 125 days",148 days
same,progression of disease,[8]; ALS transgenic mouse model,significantly delayed the progression of disease
same,extension of survival,"[8]; given pre-symptomatically and at disease onset, study rationale statement",five weeks
same,increase in lifespan,"[8]; treatment from 35 days of age, vs untreated",over 22%
same,extension of mean lifespan,[8]; [11],23 days
same,increase in lifespan,[8]; [11],18%
same,amount of metabolite No. 1,[9],0.32 % of the total radioactivity
same,amount of metabolite No. 2,[9],1.89 % of the total radioactivity
same,amount of metabolite No. 3,[9],47.7 % of the total radioactivity
same,amount of metabolite No. 4,[9],15.1 % of the total radioactivity
same,clearance,"[9]; rat, hepatocytes",0.84 mL/h
same,t1/2,"[9]; rat, hepatocytes",0.82 h
same,mortality,"[10]; rat, 200, 400, 900 mg/kg/day oral, six months",No test item related mortality occurred
same,NOEL,"[10]; rat, both sexes, six-month oral",200 mg/kg/day
same,accumulation in serum,"[10]; rat, in vivo, po",No accumulation

# From US20080227813A1, “Pharmaceutical compositions and methods for treating diseases associated with neurodegeneration” (priority 2006, published 2008)
